Key:
[1] = system: human retinal endothelial cells (HREC); assay: Proliferation of human retinal endothelial cells (crystal violet); format: cell-based; conditions: 72 hours
Experimental: (§1) Primary cultures of human retinal endothelial cells (HREC) were used. Cells were obtained from Cell Systems (Virginia, USA) and subcultured with CSC complete medium (Cell Systems). Cells at 2 to 5 passages were seeded in 24-well plates at 7,500 cells/well density and, once attached, the cells were treated or not treated (controls) with 2A-5HBS (500 and 1000 μM) or 5A-2HBS (500 and 1000 μM) and they were allowed to proliferate for 72 hours, with daily medium changes. After that, the proliferation of HREC was evaluated by staining the fixed cells with crystal violet. The number of cells is proportional to the amount of retained dye, which was spectrophotometrically determined by measuring absorbance at 595 nm after removing the dye from the cells. Data are expressed as the percentage of absorbance at 595 nm obtained in control conditions. Data were obtained from two different experiments performed in triplicate.
as §1, with “2,5-DHCME (50” for “2A-5HBS (500”, “100” for “1000 μM) or 5A-2HBS (500 and 1000”, “changes. Under the same conditions, other cultures were treated with calcium 2,5-dihydroxybenzenesulfonate (DHBS; 100 μM) for comparison.” for “changes.”

[2] = target: T1, fibroblast growth factor-1 (FGF-1) (Homo sapiens, UniProt P05230); assay: FGF-1 induced mitogenesis in quiescent Balb/c 3T3 fibroblasts; format: cell-based; conditions: potassium salts, except 2-acetoxy-5-hydroxybenzene sulfonate as calcium salt
Experimental: The evaluated compounds were used in the form of potassium salt, except in the first case in which calcium salt was used. The experiments were carried out as described in Fernández-Tornero C et al. J Biol Chem, 2003.

[3] = target: T1, fibroblast growth factor-1 (FGF-1); assay: Co-crystal structure with fibroblast growth factor-1; format: binding; conditions: for binding site on FGF-1: crystal diffraction of the complex; for acetoxyl groups of the compound when bound to FGF-1: crystal diffraction, electron density contoured at 1σ
Description: FIG. 24. 2-acetoxy-5-hydroxybenzenesulfonic acid co-crystallized with fibroblast growth factor-1. […] The compound occupies a place that is very close to that described occupied by 2,5-dihydroxybenzenesulfonic acid, the aromatic ring of which forms a cation-π bond with the N^ε group of lysine 132, which is marked in panel A as reference. […] In panels A and B, the protein surface is colored according to its electrostatic potential (light grey: negative charge; dark grey: positive charge; white: lack of charge).
FIG. 25. 5-acetoxy-2-hydroxybenzenesulfonic acid co-crystallized with fibroblast growth factor-1. […] The compound occupies a place that is very close to that described occupied by 2,5-dihydroxybenzenesulfonic acid, the aromatic ring of which forms a cation-π bond with the N^ε group of lysine 132, which is marked in panel A as reference. […] In panels A and B, the protein surface is colored according to its electrostatic potential (light grey: negative charge; dark grey: positive charge; white: lack of charge).
FIG. 26. 2,5-diacetoxybenzenesulfonic acid co-crystallized with fibroblast growth factor-1. […] The compound occupies a place that is very close to that described occupied by 2,5-dihydroxybenzenesulfonic acid, the aromatic ring of which forms a cation-π bond with the N^ε group of lysine 132, which is marked in panel A as reference. […] In panels A and B, the protein surface is colored according to its electrostatic potential (light grey: negative charge; dark grey: positive charge; white: lack of charge).
Based on the crystal diffraction of the FGF-1:2-acetoxy-5-hydroxybenzene sulfonic acid, FGF-1:5-acetoxy-2-hydroxybenzene sulfonic acid and FGF-1:2,5-diacetoxybenzene sulfonic acid complexes, the structures of the complexes were calculated and represented. FIGS. 24, 25 and 26, which show the surface of the dyed protein according to its electrostatic potential (light grey: negative charge; dark grey: positive charge; white: lack of charge), show the manner in which 2-acetoxy-5-hydroxybenzene sulfonic acid, 5-acetoxy-2-hydroxybenzene sulfonic acid and 2,5-diacetoxybenzene sulfonic acid interact, respectively, with FGF-1.

rat glioma C6 cells = assay: Proliferation of rat glioma C6 cells (crystal violet); format: cell-based; conditions: 500 μM, 48 h
Experimental: FIG. 23. […] 5A-2HBS and 2A-5HBS were administered or not (control) after seeding C6 cells in 24 well plates (10^4 per well) until they were fixed 48 hours later. Data are expressed as the mean±SEM of the percentage of absorbance at 595 nm obtained in control cultures, which is proportional to the number of cells stained with crystal violet. Data were obtained from 3 cultures for each treatment and 6 control cultures.
The cell line used was the C6 cell line. The cells were cultured as previously described (Cuevas P et al., Neurol Res 2005, 27:797-800). The cells were cultured as adherent cells in Dulbecco's modified Eagle's medium, supplemented with 7.5% (v/v) fetal bovine serum, 10 μg/ml streptomycin and 10 units/ml penicillin. The tumor cells were seeded in 24-well plates at a density of 10,000 cells/well, and were incubated at 37° C. in a humidified chamber with 5% CO2. Once adhered, the cells were treated or not (controls) with (5A-2HBS) (500 μM) or (2A-5HBS) (500 μM) and they were allowed to proliferate for 48 h. After this time the glioma cell proliferation was evaluated by means of staining the fixed cells with crystal violet. The number of cells is proportional to the amount of retained dye, which was determined spectrophotometrically by measuring the absorbance at 595 nm once the dye was extracted from the cells.

[4] = system: corneal neovascularization; assay: Topical solution in a patient with corneal neovascularization; format: in vivo, human; conditions: 5% solution of potassium salt, 4 drops a day topically, 19 days, one patient
Description: Photographs showing the presence of corneal neovascularization in a patient before being treated (A) and after 19 days of topical application of a solution containing 5% of potassium 2,5-dihydroxybenzoate (B). The treatment consisted of daily topical application of 4 drops of such solution.
4 drops a day were topically applied in a patient that presented a corneal neovascularization process refractory to any type of previous treatment.

T1 sequence (P05230 whole entry, species assumed): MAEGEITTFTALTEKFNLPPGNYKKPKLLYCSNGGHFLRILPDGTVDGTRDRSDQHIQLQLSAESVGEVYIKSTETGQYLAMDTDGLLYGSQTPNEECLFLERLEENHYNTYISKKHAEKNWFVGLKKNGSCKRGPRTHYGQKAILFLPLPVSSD

| Structure (SMILES) | HREC proliferation ([1]; 50 μM) | HREC proliferation ([1]; 100 μM, DHBS as calcium salt) | FGF-1 induced mitogenesis [2] | HREC proliferation ([1]; 500 μM) | HREC proliferation ([1]; 1000 μM) | binding site on FGF-1 [3] | acetoxyl groups of the compound when bound to FGF-1 [3] | C6 glioma cell proliferation (rat glioma C6 cells) | degree of corneal vascularization [4] |
| --- | --- | --- | --- | --- | --- | --- | --- | --- | --- |
| COC(=O)C=Cc1cc(O)ccc1O [2,5-DHCME, 2,5-dihydroxycinnamic acid methyl ester] | significant inhibition of HREC proliferation | significant inhibition of HREC proliferation | – | – | – | – | – | – | – |
| CC(=O)Oc1ccc(O)cc1S(=O)(=O)[O-].[K+] [2A-5HBS, potassium 2-acetoxy-5-hydroxybenzene sulfonate] | – | – | Inhibition of FGF-1 induced mitogenesis was observed | significant inhibition of HREC proliferation | significant inhibition of HREC proliferation | very close to the one that has been described occupied by 2,5-dihydroxybenzene sulfonic acid | conserve the acetoxyl groups | inhibition of rat glioma cell proliferation | – |
| O=C([O-])c1cc(O)ccc1O.[K+] [2,5-dihydroxybenzoate, potassium 2,5-dihydroxybenzoate] | – | – | – | – | – | – | – | – | remarkable reduction in the degree of corneal vascularization |
| CC(=O)Oc1ccc(O)c(S(=O)(=O)[O-])c1.[K+] [5A-2HBS, potassium 5-acetoxy-2-hydroxybenzene sulfonate] | – | – | Inhibition of FGF-1 induced mitogenesis was observed | – | – | very close to the one that has been described occupied by 2,5-dihydroxybenzene sulfonic acid | conserve the acetoxyl groups | inhibition of rat glioma cell proliferation | – |

— patent US9198886B2, “Use of 2,5-dihydroxybenzene for the treatment of ocular diseases” (priority 2006, dated 2015)
